Data set [1] concerns cyclic guinea pigs. The following applies: cited from earlier work.
For data set [2] the following is noted: as described in DE 43 32 283 / DE 43 32 284; cited from earlier work.
For data set [3] the following is noted: as described in DE 43 32 283 / DE 43 32 284; cited from earlier work. This is another data set of the same source.
Data set [4] relates to endometriosis. The data set can be described thus: Sequential treatment of endometriosis with an LHRH agonist and J867. Type of data set: in vivo, human. On the procedure: Women with endometriosis are treated for 2-3 months with an LHRH agonist such as Lupron. After the cessation of LHRH-agonist therapy women are treated for the next 3-6 months with J 867 in order to avoid osteoprorosis induced by prolonged treatment with LHRH agonist. During treatment with 5-50 mg J 867 the therapeutic effects of the LHRH-agonist are maintained.

Data set [5] has as its target T1, progesterone receptor (PR) (Oryctolagus cuniculus, UniProt P06186).
T1 construct: effects of PR-modulators in the uterus of estrogen primed immature rabbits (McPhail test); from tissue; host or cells: uterus (endometrium) of estradiol-primed juvenile rabbits, in vivo
T1 sequence (P06186 1-930): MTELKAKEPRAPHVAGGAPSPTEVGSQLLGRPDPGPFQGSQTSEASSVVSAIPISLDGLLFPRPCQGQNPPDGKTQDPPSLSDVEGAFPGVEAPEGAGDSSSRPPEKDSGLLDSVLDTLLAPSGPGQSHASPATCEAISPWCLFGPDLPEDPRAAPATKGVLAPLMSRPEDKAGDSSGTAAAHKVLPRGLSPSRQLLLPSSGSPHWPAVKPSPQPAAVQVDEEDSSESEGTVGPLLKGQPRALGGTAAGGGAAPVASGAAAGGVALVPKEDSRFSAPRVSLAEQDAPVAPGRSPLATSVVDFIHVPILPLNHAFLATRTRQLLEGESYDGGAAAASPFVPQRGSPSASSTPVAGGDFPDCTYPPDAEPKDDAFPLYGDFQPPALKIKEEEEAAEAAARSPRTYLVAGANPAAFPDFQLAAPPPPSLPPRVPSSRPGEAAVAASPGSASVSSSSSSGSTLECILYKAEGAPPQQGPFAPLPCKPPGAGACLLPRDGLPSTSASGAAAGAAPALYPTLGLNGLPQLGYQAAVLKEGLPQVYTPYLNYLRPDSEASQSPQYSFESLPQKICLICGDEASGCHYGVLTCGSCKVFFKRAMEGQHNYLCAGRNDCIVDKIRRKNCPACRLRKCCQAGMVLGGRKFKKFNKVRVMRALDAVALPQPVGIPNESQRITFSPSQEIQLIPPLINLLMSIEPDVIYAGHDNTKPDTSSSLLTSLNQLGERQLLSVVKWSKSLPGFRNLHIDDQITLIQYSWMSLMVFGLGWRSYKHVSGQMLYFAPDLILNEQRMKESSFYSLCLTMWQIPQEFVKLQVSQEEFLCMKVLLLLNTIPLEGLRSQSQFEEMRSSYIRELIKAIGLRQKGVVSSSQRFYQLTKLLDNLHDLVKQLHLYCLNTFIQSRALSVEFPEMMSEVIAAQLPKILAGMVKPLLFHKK
In words: McPhail test, PR agonistic (progestagenic) activity in estradiol-primed juvenile rabbits. Format: in vivo, rabbit. The following applies: for maximum progestagenic effect relative to progesterone: dose range 0.003-100 mg/rabbit s.c. On the procedure: In the classical bioassay, the McPhail test, assessing progestagenic and antiprogestagenic effects in rabbits (Selye H., Textbook of Endocrinology, 1947, pp. 345-346), progesterone produces a maximum McPhail score of 4 (by definition).
The PR antagonistic and agonistic properties of mesoprogestins were assessed in estrogen-primed rabbits in the McPhail test according to Selye (Textbook of Endocrinology, 1947, pp. 345-346).

Data set [6] has as its system pregnant guinea pigs. The data set can be described thus: Abortifacient / labor inducing activity in pregnant guinea pigs. Type of data set: in vivo, guinea pig. Particulars: for abortifacient activity ED50, guinea pig: s.c., treatment day 43-44 of pregnancy, autopsy day 50; for ranking of abortifacient activity: treated on days 43 and 44 of pregnancy, observed until day 50. On the procedure: In the guinea pig model which allows a good prediction of the effects in humans with respect to the abortifacient activity (Elger W, Beier S., Chwalisz K, Fähnrich M, Hasan S H, Henderson D, Neef G, Rohde R (1986): Studies on the mechanism of action of progesterone antagonists. J Steroid Biochem 25: 835-845) the mesoprogestins J 867, J 912, J 956, J 1042 lead up to 100 mg/kg/day to a maximal abortion rate of 20%.
The guinea pig is considered as relevant model of human gestation and parturition (Elger W, Fähnrich M, Beier S, Quing S S, Chwalisz K (1987). Endometrial and myometrial effects of progesterone antagonists in pregnant guinea pigs. Am J Obstet Gynecol 157: 1065-1074; Elger W, Neef G, Beier S, Fähnrich M, Gründel M, Heermann J, Malmendier A, Laurent D, Puri C P, Singh M M, Hasan S H, Becker H (1992). Evaluation of antifertility activities of antigestagens in animal model. In: Puri C P and Van Look P F A (eds), Current Concepts in Fertility Regulation and Reproduction. Wiley Eastern Limited, New Delhi, pp. 303-328; Elger W, Faehnrich M, Beier S, Qing S S, Chwalisz K (1986). Mechanism of action of progesterone antagonists in pregnant guinea pigs. Contraception 6: 47-62; Elger W, Chwalisz K, Faehnrich M, Hasan S H, Laurent D, Beier S, Ottow E, Neef G, Garfield R E (1990). Studies on labor-conditioning and labor-inducing effects of antiprogesterones in animal model. In: Garfield R E (eds), Norwell, pp. 153-175.) The mechanism of abortion of antiprogestins in this species is the initiation of labor and finally the expulsion of the conceptus. Abortifacient effects in the rat during very early pregnancy reflect inhibitory effects on nidation rather than initiation of uterine contractions. Studies in the rat model lead to “overestimation” of the potential of antiprogestins to terminate pregnancy in humans. Conversely, in the guinea pig model, irrespective of the antiprogestin doses, there were high rates of ongoing pregnancies similar to the situation in humans (Elger et al., Current Concepts in Fertility Regulation and Reproduction cited above). Furthermore, in both humans and guinea pigs, there is a strong synergism between antiprogestins and prostaglandins with respect the induction of labor (see the articles cited above and Elger W, Beier S (1983). Prostaglandine and Antigestagene für den Schwangerschaftsabbruch (Prostaglandins and antigestagens for pregnancy termination). German Patent DE 3337450 12; Van Look P, Bygdeman M (1989). Antiprogestational steroids: a new dimension in human fertility regulation. Oxford reviews of reproductive medicine 11: 2-60).
Pregnant guinea pigs were treated on days 43 and 44 of pregnancy and observed until day 50 of gestation. For the effects of various treatments see table 1 and FIG. 2. It is typical for this model that expulsions occur with a delay of several days after treatment. It can be seen that Mesoprogestins have a much reduced abortifacient activity compared to RU486. […] The differences with respect to abortifacient activity seem qualitative ones. It is not possible to overcome the low abortifacient activity of a Mesoprogestin by the use of a higher dose.
FIG. 2 is graphs showing data on the assessment on cumulative rate of abortion until day 50 in guinea pigs treated on days 43 and 44 of pregnancy.

Data set [7] has as its system uterine fibroids. In words: Treatment of uterine fibroids (Example 5). Type of data set: in vivo, human. The following applies: 3-6 months, 5-50 mg.
Setting [8] is: 4 days s.c. treatment, absence of progesterone.

Some results are limits rather than exact numbers.

For `COC[C@]1(OC)CC[C@H]2[C@@H]3CCC4=CC(=O)CCC4=C3[C@@H](c3ccc(/C=N/O)cc3)C[C@@]21C` [J867, 4-[17β-Methoxy-17α-(methoxymethyl)-3-oxoestra-4,9-dien-11β-yl]benzaldehyd-(1E)-oxim], in data set [1], the uterine weights entry is “reduced uterine weights”. In addition, the antiprogestagenic activity result in data set [2] is “strong”. In addition, the “antiglucocorticoid activity compared to RU 486” value in data set [3] was “markedly reduced”. For the same compound, the “therapeutic effects of the LHRH-agonist during following treatment” value in data set [4] (5-50 mg for 3-6 months after 2-3 months LHRH agonist) was “maintained”. For the same compound, in data set [4] (women with endometriosis), the estrogen deficiency result is reported as “does not produce estrogen deficiency”. Moreover, the “maximum progestagenic effect relative to progesterone” value in data set [5] is reported as “Neither mesoprogestin tested (J1042, J867, J956) reached the maximum effect of progesterone”. Also, in data set [6], the “abortifacient activity ED50, guinea pig” value was more than 100 mg/animal/day and the “ranking of abortifacient activity” value is listed as “RU486>J956>J867, J912>J1042”. In data set [7], the “pelvic pain during treatment” value was “reduction of pelvic pain was observed”.
As to `CCNC(=O)O/N=C/c1ccc([C@H]2C[C@@]3(C)[C@@H](CC[C@]3(COC)OC)[C@@H]3CCC4=CC(=O)CCC4=C32)cc1` [J956, 4-[17β-Methoxy-17α-(methoxymethyl)-3-oxoestra-4,9-dien-11β-yl]benzaldehyd-(1E)-[O-(ethylamino)carbonyl]oxim], in data set [5] (setting [8]), the “dose of maximum effect” value is recorded as 0.3-1 mg/rabbit and the “maximum effect, McPhail score” value came out at 1.5 McPhail score. Further, in data set [5] (absence of progesterone), the “shape of dose response in McPhail test” value is given as “biphasic response”. For the same compound, the “maximum progestagenic effect relative to progesterone” value in data set [5] was “Neither mesoprogestin tested (J1042, J867, J956) reached the maximum effect of progesterone”. In data set [6], the “abortifacient activity ED50, guinea pig” value is listed as 20 mg/animal/day and the “ranking of abortifacient activity” value is “RU486>J956>J867, J912>J1042”.
For the compound `CCSC(=O)O/N=C/c1ccc([C@H]2C[C@@]3(C)[C@@H](CC[C@]3(COC)OC)[C@@H]3CCC4=CC(=O)CCC4=C32)cc1` [J1042, 4-[17β-Methoxy-17α-(methoxymethyl)-3-oxoestra-4,9-dien-11β-yl]benzaldehyd-(1E)-[O-(ethylthio)carbonyl]oxim], in data set [5], the “maximum progestagenic effect relative to progesterone” value is given as “Neither mesoprogestin tested (J1042, J867, J956) reached the maximum effect of progesterone”. In data set [6], the “abortifacient activity ED50, guinea pig” value is on record as >>100 mg/animal/day and the “ranking of abortifacient activity” value is “RU486>J956>J867, J912>J1042”.

The values above are taken from patent publication US8193252B1, “Mesoprogestins (progesterone receptor modulators) for the treatment and prevention of benign hormone dependent gynecological disorders” (Bayer Pharma AG, priority 1999, dated 2012).
